Reference: patent publication US20260174855A1 (priority 2022, published 2026)

What was measured:
[1] = molecular target: hMOR (Homo sapiens, UniProt P35372); assay: biochemical; details: read-out: Emax (% of vehicle)
[2] = for NorBUP in fetal brains or maternal plasma: 1 or 3 mg/kg/day s.c. minipump, GD 9-20
[3] = molecular target: hDOR (Homo sapiens, UniProt P41143); assay: [35S]GTPγS binding, G-protein activation; type: biochemical; details: for type of activity at hDOR: 1 μM, no activation; for Emax at 1 µM: hDOR, determined from single-concentration (1 μM) experiments, read-out: Emax (% of vehicle)
[4] = tested on: rats; assay: warm water tail withdrawal assay (antinociception); details: for % MPE (at 0.1 mg/kg): 0.1 mg/kg i.v., mean (95% confidence interval); for ED50: Rattus norvegicus, iv
[5] = 4 mg/kg i.v.; data not shown

hDOR, sequence (P41143 whole entry): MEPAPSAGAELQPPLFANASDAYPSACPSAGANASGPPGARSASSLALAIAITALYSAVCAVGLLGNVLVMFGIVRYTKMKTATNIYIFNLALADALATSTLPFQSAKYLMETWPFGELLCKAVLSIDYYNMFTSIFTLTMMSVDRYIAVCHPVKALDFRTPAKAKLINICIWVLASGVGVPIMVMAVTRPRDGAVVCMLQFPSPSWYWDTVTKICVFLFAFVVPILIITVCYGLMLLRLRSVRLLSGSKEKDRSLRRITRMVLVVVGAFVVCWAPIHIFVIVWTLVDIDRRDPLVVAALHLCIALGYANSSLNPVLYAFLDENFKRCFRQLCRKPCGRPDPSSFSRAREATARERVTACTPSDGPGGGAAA
hMOR, sequence (P35372 whole entry): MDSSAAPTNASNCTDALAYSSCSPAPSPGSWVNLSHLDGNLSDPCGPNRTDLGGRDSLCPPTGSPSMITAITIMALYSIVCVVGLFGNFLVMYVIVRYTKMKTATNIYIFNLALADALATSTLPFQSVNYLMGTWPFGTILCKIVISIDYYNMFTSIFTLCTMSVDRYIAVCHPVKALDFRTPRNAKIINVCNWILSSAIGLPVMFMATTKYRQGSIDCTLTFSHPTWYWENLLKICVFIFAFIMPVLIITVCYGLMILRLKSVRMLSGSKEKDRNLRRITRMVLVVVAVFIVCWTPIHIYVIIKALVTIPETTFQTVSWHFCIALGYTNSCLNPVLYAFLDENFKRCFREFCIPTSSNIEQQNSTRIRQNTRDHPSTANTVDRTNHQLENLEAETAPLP

Structure (SMILES) | Emax [1] [%] | NorBUP in fetal brains or maternal plasma [2] | area under the curve vs. BUP ([2]; maternal plasma, data not shown) | type of activity at hDOR [3] | Emax at 1 µM [3] [%] | % MPE (at 0.1 mg/kg) ([4]; 10 minutes) | % MPE (at 0.1 mg/kg) ([4]; 60 minutes) | ED50 ([4]; 10 min) [mg/kg] | ED50 ([4]; 1 h) [mg/kg] | area under the NorBUP glucuronide curve, BUP versus BUP-D2 group [5]
C[C@@H](NC(=O)[C@@H](N)Cc1ccc(O)cc1)C(=O)NCC(=O)N(C)[C@@H](Cc1ccccc1)C(=O)NCCO [DAMGO] | 308 |  |  |  |  |  |  |  |  | 
[2H]C([2H])(C1CC1)N1CC[C@]23c4c5ccc(O)c4O[C@H]2[C@@]2(OC)CC[C@@]3(C[C@@H]2[C@](C)(O)C(C)(C)C)C1C5 [BUP-D2, (4aS,6R,7R,7aR,12bS)-3-(cyclopropylmethyl-d2)-6-((S)-2-hydroxy-3,3-dimethylbutan-2-yl)-7-methoxy-1,2,3,4,5,6,7,7a-octahydro-4a,7-ethano-4,12-methanobenzofuro[3,2-e]isoquinolin-9-ol] |  | detected no NorBUP | significantly greater | neutral antagonists of hDORs | 107 | 84.4 (43.5-125.2) % MPE | 97.9 (89.1-106.8) % MPE | 0.021 | 0.018 | 
CO[C@@]12CC[C@@]3(C[C@@H]1[C@](C)(O)C(C)(C)C)C1Cc4ccc(O)c5c4[C@@]3(CCN1CC1CC1)[C@H]2O5 [BUP, buprenorphine] |  | detected no NorBUP |  | neutral antagonists of hDORs | 114 | 90.1 (68.8-111.4) % MPE | 96.8 (83.2-110.5) % MPE | 0.025 | 0.021 | significantly greater
